Results published in patent US20100316655A1, “COMPOUNDS WITH MDR1-INVERSE ACTIVITY” (priority 2008, published 2010).

What was measured:
[1] = test system: KB-V1 adenocarcinoma cell line; assay: MTT cytotoxicity assay, P-gp (MDR1) expressing KB-V1 cells; MDR1 selectivity vs KB-3-1; assay type: cell-based, human; settings: for IC50: MTT, 72 hours; for MDR1 select. / MDR1 selectivity: ratio of IC50 against KB-3-1 divided by IC50 against KB-V1; for MDR1 selectivity: >1 = MDR1-inverse activity
Description: (§1) Exemplary compounds were also tested against the KB-V1 adenocarcinoma cell line that expresses high levels of P-gp (the protein product of MDR1). […] MDR1 selectivity is determined by the ratio of IC50 against KB-3-1 cells divided by its IC50 against KB-V1 cells.
(§2) This example describes evaluation of compounds using the MTT cytotoxicity assay. Cell survival was measured by the MTT (3-(4,5-dimethylthiazol-2-yl)-2,5-diphenyltetrazolium bromide) assay as previously described by Ludwig, J. A. et al. Selective toxicity of NSC73306 in MDR1-positive cells as a new strategy to circumvent multidrug resistance in cancer. […] Briefly, cells were seeded in […] of growth medium at a density of 5000 cells/well in 96-well plates and allowed to establish for 24 hours, at which time serially diluted drugs were added in an additional […] growth medium. Cells were then incubated for 72 hours at 37° C. in humidified 5% CO2, at which time the growth media was drawn, and replaced with MTT in IMDM growth media and incubated for 4 hours. The MTT solution was then drawn from the wells, and […] acidified ethanol solution was added to each well and after 15 minutes absorption at 560 nm was measured.

[2] = test system: KB-3-1 adenocarcinoma cells; assay: MTT cytotoxicity assay, parental P-gp-negative KB-3-1 cells; assay type: cell-based, human
Description: as §1, §2

[3] = Table 2, 72 hours, unit inferred
[4] = Homo sapiens, KB-V1, Table 2, unit inferred
[5] = Homo sapiens, KB 3-1, Table 2, 72 hours, unit inferred
[6] = Homo sapiens, Table 1, KB-V1 (high P-gp)
[7] = Homo sapiens, Table 1, 72 hours, KB-3-1 (P-gp-negative)

Row | SMILES | IC50 ([1]; Table 2, unit inferred) [µM] | MDR1 select. ([1]; Table 2) | IC50 [2, 3] [µM] | also measured
1 | O=C1Nc2ccccc2C1=NNC(=S)Nc1ccccc1Cl [Compound M5, 1-Isatin-(2′-chlorophenyl)-3-thiosemicarbazone] | 1.17 | 1.89 | 2.22 | 
2 | O=C1Nc2ccccc2C1=NNC(=S)NCc1ccccc1 [Compound M6, 1-Isatin-4-benzyl-3-thiosemicarbazone] | 7.63 | 1.53 | 11.7 | 
3 | O=C1Nc2ccccc2C1=NNC(=S)Nc1cccc(Cl)c1 [Compound M7, 1-Isatin-(3′-chlorophenyl)-3-thiosemicarbazone] | 0.64 | 2.92 | 1.87 | 
4 | O=C1Nc2ccccc2C1=NNC(=S)Nc1ccccc1 [Compound M8, 1-Isatin-(phenyl)-3-thiosemicarbazone] | 1.47 | 2.40 | 3.53 | 
5 | O=C1Nc2ccccc2C1=NNC(=S)Nc1ccc(C(F)(F)F)cc1 [Compound M9, 1-Isatin-4-(4′-(trifluoromethyl)phenyl)-3-thiosemicarbazone] | 2.1 | 4.09 | 8.59 | 
6 | O=C1Nc2ccc(F)cc2/C1=N/NC(=S)Nc1ccc(F)cc1 [Compound M10, 1-(5′-fluoroisatin)-4-(4′-fluorophenyl)-3-thiosemicarbazone] |  | 4.07 |  | IC50 [1, 4]: 0.91 µM; IC50 [2, 5]: 3.72 µM
7 | CCCCNC(=S)NN=C1C(=O)Nc2ccccc21 [Compound M11, 1-Isatin-4-butyl-3-thiosemicarbazone] | 5.69 | 1.91 | 10.9 | 
8 | O=C1Nc2ccccc2C1=NNC(=S)Nc1ccc(Cl)cc1 [Compound M12, 1-Isatin-(4′-chlorophenyl)-3-thiosemicarbazone] | 4.99 | 2.68 | 13.4 | 
9 | O=C1Nc2ccccc2/C1=N/NC(=S)Nc1c(F)cc(F)cc1F [Compound M13, 1-Isatin-4-(2′,4′,6′-trifluorophenyl)thiosemicarbazone] |  | 5.27 |  | IC50 [1, 4]: 7.28 µM; IC50 [2, 5]: 38.4 µM
10 | O=C1Nc2ccccc2/C1=N/NC(=S)Nc1ccc(F)cc1 [Compound M14, 1-Isatin-4-(4′-fluorophenyl)thiosemicarbazone] |  | 7.36 |  | IC50 [1, 4]: 1.92 µM; IC50 [2, 5]: 14.2 µM
11 | CC(C)NC(=S)NN=C1C(=O)Nc2ccccc21 [Compound M15, 1-Isatin-4-isopropyl-3-thiosemicarbazone] | 10.2 | 3.84 | 39.4 | 
12 | Cc1ccc(NC(=S)N/N=C2\C(=O)Nc3ccccc32)cc1 [Compound M16, 1-Isatin-4-(4′-methylphenyl)thiosemicarbazone] |  | 9.23 |  | IC50 [1, 4]: 2.6 µM; IC50 [2, 5]: 24 µM
13 | O=C1Nc2ccccc2/C1=N/NC(=S)Nc1ccc([N+](=O)[O-])cc1 [Compound M17, 1-Isatin-4-(4′-nitrophenyl)thiosemicarbazone] |  | 8.27 |  | IC50 [1, 4]: 2.07 µM; IC50 [2, 5]: 17.2 µM
14 | COc1ccccc1NC(=S)NN=C1C(=O)Nc2ccccc21 [Compound M18, 1-isatin-4-(2′-methoxyphenyl)-3-thiosemicarbazone] | 2.69 | 1.84 | 4.96 | 
15 | O=C1Nc2ccccc2C1=NNC(=S)Nc1ccc(C(=O)O)cc1 [Compound M19, 1-isatin-4-(4′-carboxyphenyl)-3-thiosemicarbazone] | > 50 | 1.00 | > 50 | 
16 | O=C1Nc2ccccc2C1=NNC(=S)Nc1cccc2ccccc12 [Compound M20, 1-isatin-4-(1′-napthyl)-3-thiosemicarbazone] | 2.21 | 2.32 | 5.12 | 
17 | O=C1Nc2ccccc2C1=NNC(=S)Nc1ccc(Oc2ccccc2)cc1 [Compound M21, 1-Isatin-4-(4-phenoxybenzene)-3-thiosemicarbazone] | 1.67 | 3.44 | 5.72 | 
18 | O=C1Nc2ccccc2C1=NNC(=S)NC12CC3CC(CC(C3)C1)C2 [Compound M22, 1-isatin-4-(1′-adamantyl)-3-thiosemicarbazone] | 1.02 | 3.09 | 3.16 | 
19 | COc1cc(NC(=S)NN=C2C(=O)Nc3ccccc32)cc(OC)c1OC [Compound M23, 1-isatin-4-(3′,4′,5′-trimethoxyphenyl)-3-thiosemicarbazone] | 3.49 | 3.18 | 11.1 | 
20 | COc1ccc(NC(=S)NN=C2C(=O)Nc3ccccc32)cc1 [NSC73306, 1-Isatin-4-(4′ methoxyphenyl)thiosemicarbazone, reference compound] | 3.3 | 4.3 | 14.2 | MDR1-inverse selectivity (in words) ([1]; Example 3, Table 1, KB-V1 vs KB-3-1): MDR1-inverse selectivity
21 | O=C1Nc2ccc(Br)cc2/C1=N/NC(=S)Nc1ccc(F)cc1 [drawing 22] |  |  |  | IC50 [1, 6]: 5.8 ± 2.5 µM; MDR1 selectivity ([1]; Table 1): 2.3; IC50 [2, 7]: 13.1 ± 4.8 µM
22 | O=C1Nc2ccc(Br)cc2/C1=N/NC(=S)Nc1ccc([N+](=O)[O-])cc1 [drawing 23] |  |  |  | IC50 [1, 6]: 4 ± 0.6 µM; MDR1 selectivity ([1]; Table 1): 7.1; IC50 [2, 7]: 28.4 ± 5.2 µM
23 | COc1ccc(NC(=S)N/N=C2\C(=O)Nc3ccc(F)cc32)cc1 [drawing 34] |  |  |  | IC50 [1, 6]: 5.2 ± 1.1 µM; MDR1 selectivity ([1]; Table 1): 7.5; IC50 [2, 7]: 39.3 ± 23.3 µM
24 | COc1ccc(NC(=S)N/N=C2\C(=O)N(C)c3ccccc32)cc1 [drawing 35] |  |  |  | IC50 [1, 6]: 9.3 ± 2.8 µM; MDR1 selectivity ([1]; Table 1): 2.1; IC50 [2, 7]: 19.6 ± 1.7 µM
25 | COc1ccc(NC(=S)N/N=C/c2ccccn2)cc1 [drawing 37] |  |  |  | IC50 [1, 6]: 2.4 ± 0.5 µM; MDR1 selectivity ([1]; Table 1): 1.4; IC50 [2, 7]: 3.4 ± 1.5 µM
26 | COc1ccc(NC(=S)N/N=C2\C(=O)Nc3ccc([N+](=O)[O-])cc32)cc1 [drawing 39] |  |  |  | IC50 [1, 6]: 6.7 ± 2.9 µM; MDR1 selectivity ([1]; Table 1): 4.0; IC50 [2, 7]: 26.3 ± 5.5 µM
27 | C=CCNC(=S)N/N=C1\C(=O)Nc2ccccc21 [drawing 40] |  |  |  | IC50 [1, 6]: 20.7 ± 7.7 µM; MDR1 selectivity ([1]; Table 1): 1.3; IC50 [2, 7]: 26.1 ± 2.6 µM
